The structures appear in SMILES notation.

Sequence of human Cat S (P25774 115-331): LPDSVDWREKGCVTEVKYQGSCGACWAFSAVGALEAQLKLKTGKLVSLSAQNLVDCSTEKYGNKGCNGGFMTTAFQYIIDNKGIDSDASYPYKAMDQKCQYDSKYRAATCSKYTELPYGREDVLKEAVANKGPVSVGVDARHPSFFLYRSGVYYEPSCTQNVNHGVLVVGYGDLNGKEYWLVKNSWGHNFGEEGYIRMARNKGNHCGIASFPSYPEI

This assay concerns the target human Cat S (Homo sapiens (Human), UniProt P25774). The experiment in a line: Cathepsin enzyme inhibition assay (fluorogenic peptide substrate). The class given is biochemical. The conditions noted are these: human Cat S, enzyme 1 nM, substrate Z-Val-Val-Arg-AMC, pH 6.5; read-out: CatS IC50.
For orientation: IC50 means the concentration that gives 50% inhibition. On to `Cc1[nH]c(-c2ccc(S(=O)(=O)CC(C)C)cc2)nc1CN1CCC(N2Cc3ccccc3NC2=O)CC1` [Example 78, 3-(1-{5-Methyl-2-[4-(2-methyl-propane-1-sulfonyl)-phenyl]-1H-imidazol-4-ylmethyl}-piperidin-4-yl)-3,4-dihydro-1H-quinazolin-2-one], for which the IC50 came to 1070 nM. For the molecule `Cc1[nH]c(-c2ccc(S(=O)(=O)CC(C)C)cc2)nc1CN1CCC(n2c(=O)n(C)c3ccccc32)CC1` [Example 79, 1-Methyl-3-(1-{5-methyl-2-[4-(2-methyl-propane-1-sulfonyl)-phenyl]-1H-imidazol-4-ylmethyl}-piperidin-4-yl)-1,3-dihydro-benzoimidazol-2-one], the half-maximal inhibitory concentration (IC50) stood at 2870 nM.

For `Cc1[nH]c(-c2ccc(S(=O)(=O)Cc3ccccc3)cc2)nc1CN1CCC(N2Cc3ccccc3NC2=O)CC1` [Example 80, 3-{1-[5-Methyl-2-(4-phenylmethanesulfonyl-phenyl)-1H-imidazol-4-ylmethyl]-piperidin-4-yl}-3,4-dihydro-1H-quinazolin-2-one], the IC50 was 99 nM.

`Cc1[nH]c(-c2ccc(S(=O)(=O)Cc3ccccc3)cc2)nc1CN1CCC(n2c(=O)n(C)c3ccccc32)CC1` [Example 81, 1-Methyl-3-{1-[5-methyl-2-(4-phenylmethanesulfonyl-phenyl)-1H-imidazol-4-ylmethyl]-piperidin-4-yl}-1,3-dihydro-benzoimidazol-2-one]: the half-inhibitory concentration (IC50) worked out at 170 nM.
